Test results as given in patent publication US20240358842A1, “PROTEIN STABILIZING COMPOUNDS CONTAINING USP7 LIGANDS” (Stablix, Inc., priority 2021, published 2024).
Like-named read-outs stand apart in the source and are kept apart here.

Tests used:
USP7 CD + UBL 1-5 = target: T1, USP7 CD + UBL 1-5 (Homo sapiens, UniProt Q93009); assay: Surface plasmon resonance assay (SPR); assay type: binding
T1 construct: USP7 CD +
Description: The surface plasmon resonance experiments were performed using a Cytiva (formerly GE Healthcare) Biacore 8K equipped with a Series S Sensor Chip SA. The ligands were immobilized via a biotin-modified biotin acceptor peptide. USP7 Ligands were diluted in running buffer (HBS-P+2% DMSO; 10 mM HEPES, pH 7.4, 150 mM NaCl, 1 mM DTT, 0.05% P20, 2% DMSO) to 100 μg/mL and injected at […] until a density between 500-10,000 RU was reached on flow-cell two of each channel, and flow cell one was left blank to serve as a reference surface. Both surfaces were washed until a stable baseline was achieved then 30 startup cycles to condition the surface. To collect kinetic and steady-state binding data, the small molecule analytes were prepared in three-fold dilution series in HBS-P+2% DMSO running buffer. Analytes were injected over both flow cells at a flow rate of […] at 25° C. The complex was allowed to associate for 60 seconds and dissociate for 300 seconds. Data were collected at 10 Hz. The data were fit to a simple 1:1 interaction model global data analysis within Cytiva Biacore Insight Evaluation Software.

USP7 = USP7 (Homo sapiens, UniProt Q93009); assay: Ub-Rho cleavage assay; assay type: biochemical; details: Ub-Rho substrate, recombinant USP7; read-out: Ub (Rho) USP7.1 (IC50)
USP7, sequence (Q93009 whole entry): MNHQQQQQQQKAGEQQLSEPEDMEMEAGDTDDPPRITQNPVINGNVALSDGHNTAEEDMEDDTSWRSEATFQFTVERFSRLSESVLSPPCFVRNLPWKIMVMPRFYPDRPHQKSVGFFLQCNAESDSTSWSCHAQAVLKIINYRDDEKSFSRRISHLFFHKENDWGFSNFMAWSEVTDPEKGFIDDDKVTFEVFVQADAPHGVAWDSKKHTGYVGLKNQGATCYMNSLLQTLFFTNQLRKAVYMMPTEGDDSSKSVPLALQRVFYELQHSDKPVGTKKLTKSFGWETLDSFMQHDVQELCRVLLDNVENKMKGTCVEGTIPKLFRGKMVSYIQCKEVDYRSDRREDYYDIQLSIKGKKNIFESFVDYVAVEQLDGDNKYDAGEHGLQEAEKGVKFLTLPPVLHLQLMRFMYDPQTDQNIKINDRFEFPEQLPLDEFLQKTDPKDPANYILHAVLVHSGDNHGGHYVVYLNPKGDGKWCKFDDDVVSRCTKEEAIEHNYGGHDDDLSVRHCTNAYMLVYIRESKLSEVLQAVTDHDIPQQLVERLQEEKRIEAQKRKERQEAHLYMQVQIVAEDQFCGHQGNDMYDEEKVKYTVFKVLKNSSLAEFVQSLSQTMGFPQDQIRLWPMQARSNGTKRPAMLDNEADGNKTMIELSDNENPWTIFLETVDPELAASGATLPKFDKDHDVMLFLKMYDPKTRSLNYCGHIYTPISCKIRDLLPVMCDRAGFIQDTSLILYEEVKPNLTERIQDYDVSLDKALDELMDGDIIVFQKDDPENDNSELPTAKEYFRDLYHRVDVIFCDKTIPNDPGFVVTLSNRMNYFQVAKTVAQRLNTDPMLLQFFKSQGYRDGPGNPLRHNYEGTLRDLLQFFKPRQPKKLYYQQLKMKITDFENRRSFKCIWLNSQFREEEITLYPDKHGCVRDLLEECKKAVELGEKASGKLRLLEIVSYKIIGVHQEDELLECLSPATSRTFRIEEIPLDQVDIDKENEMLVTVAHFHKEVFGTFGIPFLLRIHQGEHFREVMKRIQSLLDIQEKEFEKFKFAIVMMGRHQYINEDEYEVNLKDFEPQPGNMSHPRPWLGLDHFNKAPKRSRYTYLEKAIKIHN
Description: All fluorescence measurements were performed on a Molecular Devices FlexStation3 with excitation at 480 nm and emission 540 nm, PMT Gain: Medium, Flash Number: 10. […] Assay buffer for all measurements was 50 mM HEPES, 100 mM NaCl, 0.5 mM EDTA, 1 mM TCEP, 0.1 mg/ml BSA, 0.01% Tween-20, pH 7.8. […] Serial dilutions were made with a Mosquito HTS (SPT Labtech) nanoliter liquid handler. 200 nL of each compound in duplicate or DMSO control were transferred to the assay plate. The first two columns served as positive controls. 9.8 μl per well of USP7 working solution was added to the assay plate. Compound+Protein was incubated for 25 min at 25° C. 10 uL of Ub-Rho substrate was added per well and incubated for an additional 15 min at 25° C. Fluorescence was then measured. Percent response relative to DMSO controls was calculated in GraphPad or Scinamic, and the data was fitted to a non-linear regression to determine IC50 values.

[1] = steady-state KD, read-out: SPR USP7 CD + UBL 1-5 (KD_ss)
[2] = kinetic KD, read-out: SPR USP7 CD + UBL 1-5 (KD_kinetic)

T1 sequence (Q93009 208-1102 limits assumed): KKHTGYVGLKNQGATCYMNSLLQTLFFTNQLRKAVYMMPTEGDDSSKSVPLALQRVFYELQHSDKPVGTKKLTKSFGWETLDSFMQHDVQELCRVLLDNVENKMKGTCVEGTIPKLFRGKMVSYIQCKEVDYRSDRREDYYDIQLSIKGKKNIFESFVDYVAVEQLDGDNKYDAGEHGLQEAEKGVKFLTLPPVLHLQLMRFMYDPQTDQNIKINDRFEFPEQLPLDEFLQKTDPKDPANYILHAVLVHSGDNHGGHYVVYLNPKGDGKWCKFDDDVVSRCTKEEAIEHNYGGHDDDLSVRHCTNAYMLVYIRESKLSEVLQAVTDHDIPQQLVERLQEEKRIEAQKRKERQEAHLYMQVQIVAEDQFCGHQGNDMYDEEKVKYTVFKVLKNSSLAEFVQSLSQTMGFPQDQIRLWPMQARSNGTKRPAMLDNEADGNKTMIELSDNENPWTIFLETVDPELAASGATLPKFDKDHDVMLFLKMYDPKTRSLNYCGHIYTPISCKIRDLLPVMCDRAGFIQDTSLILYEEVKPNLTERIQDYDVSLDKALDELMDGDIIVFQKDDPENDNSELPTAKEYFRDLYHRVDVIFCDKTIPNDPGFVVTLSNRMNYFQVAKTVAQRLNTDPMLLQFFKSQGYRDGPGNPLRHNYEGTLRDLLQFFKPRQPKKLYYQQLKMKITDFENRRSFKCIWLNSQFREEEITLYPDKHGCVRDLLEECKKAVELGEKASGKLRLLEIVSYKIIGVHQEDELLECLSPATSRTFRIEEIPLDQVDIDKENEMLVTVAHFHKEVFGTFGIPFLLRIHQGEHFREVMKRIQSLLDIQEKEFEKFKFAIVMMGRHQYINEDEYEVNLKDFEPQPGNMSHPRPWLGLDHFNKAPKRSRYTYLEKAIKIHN

| Kd (USP7 CD + UBL 1-5; [1]) | IC50 (USP7) | Kd (USP7 CD + UBL 1-5; [2]) | Structure (SMILES) |
| --- | --- | --- | --- |
| 1 to 100 µM | > 100 µM | – | NCc1ccc(Nc2nc3ccc(NS(=O)(=O)c4cccs4)cc3s2)nc1 [U87] |
| > 100 µM | > 100 µM | – | CN1CCC(C(=O)Nc2nc3cc(NS(=O)(=O)c4cccs4)ccc3s2)CC1 [U88] |
| > 100 µM | > 100 µM | – | CN1CCC(C(=O)Nc2nc3ccc(NS(=O)(=O)N4CC(F)C4)cc3s2)CC1 [U89] |
| 1 to 100 µM | > 100 µM | – | Cc1nocc1S(=O)(=O)Nc1ccc2nc(NC(=O)C3CCN(C)CC3)sc2c1 [U90] |
| 1 to 100 µM | > 100 µM | – | CN1CCC(C(=O)Nc2nc3ccc(NS(=O)(=O)c4cn5c(n4)CCC5)cc3s2)CC1 [U91] |
| > 100 µM | > 100 µM | – | CN1CCC(NC(=O)c2nc3ccc(NS(=O)(=O)c4cccs4)cc3s2)CC1 [U92] |
| 1 to 100 µM | > 100 µM | – | CN1CCC(C(=O)Nc2nc3ccc(NS(=O)(=O)c4cnccn4)cc3s2)CC1 [U93] |
| 1 to 100 µM | > 100 µM | – | NCCN(c1ccc2nc(NC(=O)c3ccco3)sc2c1)S(=O)(=O)c1cccs1 [U94] |
| > 100 µM | > 100 µM | – | CN1CCC(C(=O)Nc2nc3ccc(NS(=O)(=O)c4cnc(Cl)s4)cc3s2)CC1 [U95] |
| 1 to 100 µM | > 100 µM | – | CC(=O)N1CCCn2nc(C(=O)Nc3nc4ccc(NS(=O)(=O)c5cccs5)cc4s3)cc2C1 [U96] |
| 1 to 100 µM | > 100 µM | – | CN1CCn2cnc(C(=O)Nc3nc4ccc(NS(=O)(=O)c5cccs5)cc4s3)c2C1 [U97] |
| 1 to 100 µM | 1 to 100 µM | – | O=C(Nc1nc2ccc(NS(=O)(=O)c3cccs3)cc2s1)c1cc2n(n1)CCCN(C1CC1)C2 [U98] |
| 1 to 100 µM | > 100 µM | – | CN1CCn2cc(C(=O)Nc3nc4ccc(NS(=O)(=O)c5cccs5)cc4s3)nc2C1 [U99] |
| 1 to 100 µM | > 100 µM | – | NCc1cc(Nc2nc3ccc(NS(=O)(=O)c4cn5c(n4)CCC5)cc3s2)ncn1 [U100] |
| 1 to 100 µM | > 100 µM | – | CN(C)Cc1cc(C(=O)Nc2nc3ccc(NS(=O)(=O)c4cccs4)cc3s2)nn1C [U101] |
| 1 to 100 µM | > 100 µM | – | CN1CCCn2nc(C(=O)Nc3nc4ccc(NS(=O)(=O)c5cn6c(n5)CCC6)cc4s3)cc2C1 [U102] |
| 1 to 100 µM | > 100 µM | – | CN1CCCn2nc(C(=O)Nc3nc4ccc(NS(=O)(=O)c5cccnc5)cc4s3)cc2C1 [U103] |
| 1 to 100 µM | > 100 µM | – | CN1CCCn2nc(C(=O)Nc3nc4ccc(NS(=O)(=O)c5ccccn5)cc4s3)cc2C1 [U104] |
| 1 to 100 µM | > 100 µM | – | Cn1nc(C(=O)Nc2nc3ccc(NS(=O)(=O)c4cccs4)cc3s2)cc1CN1CCC(CO)CC1 [U105] |
| > 100 µM | > 100 µM | – | CN1CCCn2nc(C(=O)Nc3nc4ccc(NS(=O)(=O)c5cnccn5)cc4s3)cc2C1 [U106] |
| 1 to 100 µM | > 100 µM | – | Cn1ccc(C(=O)Nc2nc3ccc(NS(=O)(=O)c4cccs4)cc3s2)n1 [U107] |
| > 100 µM | > 100 µM | – | CN1CCCn2nc(C(=O)Nc3nc4ccc(N(CCN)S(=O)(=O)c5cccs5)cc4s3)cc2C1 [U108] |
| > 100 µM | > 100 µM | – | CN1CCCn2nc(C(=O)Nc3nc4ccc(NS(=O)(=O)c5ccncc5)cc4s3)cc2C1 [U109] |
| 1 to 100 µM | > 100 µM | – | CN1CCCn2nc(C(=O)Nc3nc4ccc(NS(=O)(=O)c5cn6ccccc6n5)cc4s3)cc2C1 [U110] |

| Kd (USP7 CD + UBL 1-5; [1]) | IC50 (USP7) | Kd (USP7 CD + UBL 1-5; [2]) | Structure (SMILES) |
| --- | --- | --- | --- |
| > 100 µM | > 100 µM | – | CN1CCCn2nc(C(=O)Nc3nc4ccc(N(C)S(=O)(=O)c5cccs5)cc4s3)cc2C1 [U111] |
| 1 to 100 µM | > 100 µM | – | NC1CCn2nc(C(=O)Nc3nc4ccc(NS(=O)(=O)c5cccs5)cc4s3)cc2C1 (stereo not shown) [U112] |
| 1 to 100 µM | > 100 µM | – | CN1CCCn2nc(C(=O)Nc3nc4ccc(N[S+]([O-])c5cccs5)cc4s3)cc2C1 (stereo not shown) [U113] |
| > 100 µM | > 100 µM | – | CN1CCCn2nc(C(=O)Nc3nc4ccc(NCc5c[nH]cn5)cc4s3)cc2C1 [U114] |
| 1 to 100 µM | > 100 µM | – | CN1CCCn2nc(C(=O)Nc3nc4ccc(N(CC5CCNC5)S(=O)(=O)c5cccs5)cc4s3)cc2C1 (stereo not shown) [U115] |
| 1 to 100 µM | > 100 µM | – | CN1CCCn2nc(C(=O)Nc3nc4ccc(NS(=O)(=O)c5nnc[nH]5)cc4s3)cc2C1 [U116] |
| 1 to 100 µM | > 100 µM | – | CN1CC2CN(C(=O)Nc3nc4ccc(NS(=O)(=O)c5cccs5)cc4s3)CC2C1 (stereo not shown) [U117] |
| 1 to 100 µM | > 100 µM | – | O=C(Nc1nc2ccc(NS(=O)(=O)c3cccs3)cc2s1)c1ccn[nH]1 [U118] |
| 1 to 100 µM | > 100 µM | – | C#CCCN1CCCn2nc(C(=O)Nc3nc4ccc(NS(=O)(=O)c5cccs5)cc4s3)cc2C1 [U119] |
| 1 to 100 µM | > 100 µM | – | CN1CCCn2nc(C(=O)Nc3nc4ccc(N(C5CCNC5)S(=O)(=O)c5cccs5)cc4s3)cc2C1 (stereo not shown) [U120] |
| 1 to 100 µM | > 100 µM | – | CN1CCCn2nc(C(=O)Nc3nc4ccc(NS(=O)(=O)c5nn6ccccc6c5Cl)cc4s3)cc2C1 [U121] |
| 1 to 100 µM | > 100 µM | – | CCC(=O)N1CCC(C(=O)Nc2nc3ccc(NS(=O)(=O)c4cccs4)cc3s2)C1 (stereo not shown) [U122] |
| > 100 µM | > 100 µM | – | CN1CCN(C(=O)Nc2nc3ccc(NS(=O)(=O)c4cccs4)cc3s2)CC1=O [U123] |
| > 100 µM | 1 to 100 µM | – | CN1CCCn2nc(C(=O)Nc3nc4ccc(NS(=O)(=O)c5cccs5)cc4s3)nc2C1 [U124] |
| 1 to 100 µM | > 100 µM | – | O=C(Nc1nc2ccc(NS(=O)(=O)c3cccs3)cc2s1)N1CCOCC1 [U126] |
| 1 to 100 µM | > 100 µM | – | CN1CCCn2nc(C(=O)Nc3nc4ccc(S(=O)(=O)NC5CCNC5)cc4s3)cc2C1 (stereo not shown) [U127] |
| 1 to 100 µM | > 100 µM | – | CN1CCCn2nc(C(=O)Nc3nc4ccc(NS(=O)(=O)C5CCNC5)cc4s3)cc2C1 (stereo not shown) [U128] |
| 1 to 100 µM | > 100 µM | – | C=CC(=O)N1CCC(C(=O)Nc2nc3ccc(NS(=O)(=O)c4cccs4)cc3s2)C1 (stereo not shown) [U129] |
| 1 to 100 µM | > 100 µM | – | CN1CCCn2nc(C(=O)Nc3nc4ccc(NS(=O)(=O)c5cc6ccccn6n5)cc4s3)cc2C1 [U130] |
| – | < 1 µM | < 1 µM | C[C@H](CC(=O)N1CCC(O)(Cn2cnc3c(-c4ccc(CNC(=O)CCCCNC(=O)OC(C)(C)C)cc4)n(C)nc3c2=O)CC1)c1ccccc1 [U131] |
| – | < 1 µM | < 1 µM | C[C@H](CC(=O)N1CCC(O)(Cn2cnc3c(-c4ccc(CNC(=O)CCCCCCNC(=O)OC(C)(C)C)cc4)n(C)nc3c2=O)CC1)c1ccccc1 [U132] |
| – | < 1 µM | < 1 µM | C[C@H](CC(=O)N1CCC(O)(Cn2cnc3c(-c4ccc(CNC(=O)CCCCCCCNC(=O)OC(C)(C)C)cc4)n(C)nc3c2=O)CC1)c1ccccc1 [U133] |
| – | < 1 µM | < 1 µM | C[C@H](CC(=O)N1CCC(O)(Cn2cnc3c(-c4ccc(CNC(=O)CCNC(=O)OC(C)(C)C)cc4)n(C)nc3c2=O)CC1)c1ccccc1 [U134] |
